Measurements as given in patent US20240166630A1, “INDOLE DERIVATIVES AS SEROTONERGIC AGENTS USEFUL FOR THE TREATMENT OF DISORDERS RELATED THERETO” (Mindset Pharma Inc., priority 2021, published 2024).
Where “and” joins values, the source holds several entries; their conditions need not be identical. Equal values may be shown once. Read-outs that look alike come from different tables or passages of the source.

Assays:
[1] = Liver microsomes stability with NADPH, mouse
Description: The objective of this study was to estimate in vitro metabolic stability of representative compounds of the application in pooled human and male mouse liver microsomes. The concentrations of parent compounds in reaction systems were evaluated by LC-MS/MS for estimating the stability in pooled human and male mouse liver microsomes. The in vitro intrinsic clearances of test compounds were determined as well.
A master solution in the “Incubation Plate” containing phosphate buffer, ultra-pure H2O, MgCl2 solution and liver microsomes was made according to Table 3. The mixture was pre-warmed at 37° C. water bath for 5 minutes.
40 μL of 10 mM NADPH solution was added to each well. The final concentration of NADPH was 1 mM. The negative control samples were prepared by replacing NADPH with 40 μL of ultra-pure H2O. Samples were prepared in duplicate. Negative controls were prepared in singlet.
The reaction was started with the addition of 4 μL of 200 μM test compounds or control compounds to each master solution to get the final concentration of 2 μM. This study was performed in duplicate.
Aliquots of 50 μL were taken from the reaction solution at 0, 15, 30, 45 and 60 minutes. The reaction solutions were stopped by the addition of 4 volumes of cold methanol with IS (100 nM alprazolam, 200 nM imipramine, 200 nM labetalol and 2 μM ketoprofen). Samples were centrifuged at 3,220 g for 40 minutes. Aliquot of 90 μL of the supernatant was mixed with 90 μL of ultra-pure H2O and then was used for LC-MS/MS analysis.
LC/MS analysis was performed for all samples from this study using a Shimadzu liquid chromatograph separation system equipped with degasser DGU-20A5R; solvent delivery unit LC-30AD; system controller SIL-30AC; column oven CTO-30A; CTC Analytics HTC PAL System; Mass spectrometric analysis was performed using an Triple Quad™ 5500 instrument.
All calculations were carried out using Microsoft Excel. Peak area ratios of test compound to internal standard (listed in the below table) were determined from extracted ion chromatograms.
All calculations were carried out using Microsoft Excel. Peak areas were determined from extracted ion chromatograms. The slope value, k, was determined by linear regression of the natural logarithm of the remaining percentage of the parent drug vs. incubation time curve.
The in vitro half-life (in vitro t1/2) was determined from the slope value:
Conversion of the in vitro t1/2 (min) into the in vitro intrinsic clearance (in vitro CLint, in μL/min/mg proteins) was done using the following equation (mean of duplicate determinations): […]

[2] = In vivo pharmacokinetics in male C57BL/6 mice; design: species or system mouse
Description: Animals: Male C57BL/6 mice (25-30 g) from Charles River Labs were acclimatized for a minimum of 5 days prior to dosing. Body weights were recorded on the day of dosing.
Food restriction: Animals dosed p.o. were deprived of food overnight and fed ˜2 h following dosing.
Dosing: Formulations were administered intravenously (i.v.) via the tail vein or orally (p.o.) by gavage with disposable feeding needles.
Sample collection: Serial blood samples was collected via tail snip. Terminal blood samples was collected under isoflurane anesthesia by cardiac puncture.
Sample processing/storage: All blood samples were transferred into K2EDTA tubes on wet ice and centrifuged within 5 min (3200× g for 5 min at 4° C.) to obtain plasma. Plasma was stored at −80° C. until analysis.
Instrumentation: AB Sciex QTRAP 4000 or 6500 MS/MS system equipped with an LC system with a binary pump, a solvent degasser, a thermostatted column compartment and a multiplate autosampler.
5. PK Analysis • i. Analysis software: Phoenix® WinNonlin® 8.2 (Pharsight, Certara, Mountainview, CA) • ii. Analysis methods: non-compartmental analysis, linear up/log down trapezoidal rule • iii. PK parameters: C0, t1/2, AUC0-tlast. AUC0-∞, CL, Vss, MRT, tmax(po), Cmax(po), F, as appropriate

[3] = 9.92 mg/kg i.v., individual animals M10-M12
[4] = 9.92 mg/kg p.o., individual animals M13-M15
[5] = 9.92 mg/kg s.c., individual animals M16-M18

[2H]C([2H])(c1c[nH]c2ccccc12)[C@H]1CCCN1C([2H])([2H])[2H] [I-B-1, (R)-3-((1-(methyl-d3)pyrrolidin-2-yl)methyl-d2)-1H-indole]
half-life at 2 μM ([1]; male, mouse, microsomes): 1.16 h | microsomal CLint at 2 μM ([1]; male, mouse, microsomes): 19.9 µL/min/mg | Remaining Percentage (%) after 60 min Mouse ([1]; mouse liver microsomes, with NADPH, 2 μM): 55.00% | AUC0-tlast [2, 3]: 3708 ng·h/mL and 4440 ng·h/mL | AUC(0-inf) [2, 3]: 3709 ng·h/mL and 4441 ng·h/mL | Apparent t1/2 [2, 3]: 2.16 h and 2.05 h | C0 [2, 3]: 3473 ng/mL and 3356 ng/mL | CL [2, 3]: 44.58 mL/min/kg and 37.23 mL/min/kg | MRT0-inf [2, 3]: 2.46 h and 2.57 h | Vss [2, 3]: 6.59 L/kg and 5.751 L/kg | F ([2]; 9.92 mg/kg p.o., Mean ± SD): 58.2 ± 18.4% | AUC0-tlast [2, 4]: 2782 ng·h/mL and 2260 ng·h/mL | AUC(0-inf) [2, 4]: 3099 ng·h/mL | Cmax [2, 4]: 516 ng/mL and 342 ng/mL | MRT0-inf [2, 4]: 8.54 h | tmax [2, 4]: 1.00 h and 0.500 h | F ([2]; 9.92 mg/kg p.o., individual animals M13-M15, for M15 AUC0-tlast used): 40.8% and 77.5% and 56.5% | Apparent t1/2 ([2]; 9.92 mg/kg p.o., individual animals, estimate may not be accurate): 9.46 h | F ([2]; 9.92 mg/kg s.c., Mean ± SD): 67.9 ± 6.24% | AUC0-tlast [2, 5]: 2833 ng·h/mL and 2429 ng·h/mL | AUC(0-inf) [2, 5]: 2834 ng·h/mL and 2431 ng·h/mL | Apparent t1/2 [2, 5]: 2.24 h and 2.56 h | Cmax [2, 5]: 1090 ng/mL and 950 ng/mL | F [2, 5]: 72.2% and 70.9% and 60.8% | MRT0-inf [2, 5]: 2.58 h | tmax [2, 5]: 0.500 h | clearance ([2]; male, C57BL/6, mouse, plasma, iv, 9.92 mg/kg, 9.92 mg/kg i.v., Mean ± SD): 41.7 mL/min/kg | AUC(0-inf) ([2]; male, C57BL/6, mouse, plasma, iv, 9.92 mg/kg, 9.92 mg/kg i.v., Mean ± SD, read-out: AUC0-inf): 4000 ± 389 ng·h/mL | AUC(0-t) ([2]; male, C57BL/6, mouse, plasma, iv, 9.92 mg/kg, 9.92 mg/kg i.v., Mean ± SD, read-out: AUC0-tlast): 4000 ± 389 ng·h/mL | half-life ([2]; male, C57BL/6, mouse, plasma, iv, 9.92 mg/kg, 9.92 mg/kg i.v., Mean ± SD, read-out: Apparent t1/2 (converted)): 2.17 ± 0.127 h | C0 ([2]; male, C57BL/6, mouse, plasma, iv, 9.92 mg/kg, 9.92 mg/kg i.v., Mean ± SD, read-out: C0): 3910 ± 868 ng/mL | MRT inf ([2]; male, C57BL/6, mouse, plasma, iv, 9.92 mg/kg, 9.92 mg/kg i.v., Mean ± SD, read-out: MRT0-inf): 2.43 ± 0.16 h | Vd ([2]; male, C57BL/6, mouse, plasma, iv, 9.92 mg/kg, 9.92 mg/kg i.v., Mean ± SD, read-out: Vss): 6.06 ± 0.464 L/kg | clearance ([2]; male, C57BL/6, mouse, plasma, iv, 9.92 mg/kg, 9.92 mg/kg i.v., individual animals M10-M12): 43 mL/min/kg | AUC(0-inf) ([2]; male, C57BL/6, mouse, plasma, iv, 9.92 mg/kg, 9.92 mg/kg i.v., individual animals M10-M12, read-out: AUC0-inf): 3850 ng·h/mL | AUC(0-t) ([2]; male, C57BL/6, mouse, plasma, iv, 9.92 mg/kg, 9.92 mg/kg i.v., individual animals M10-M12, read-out: AUC0-tlast): 3850 ng·h/mL | half-life ([2]; male, C57BL/6, mouse, plasma, iv, 9.92 mg/kg, 9.92 mg/kg i.v., individual animals M10-M12, read-out: Apparent t1/2 (converted)): 2.3 h | C0 ([2]; male, C57BL/6, mouse, plasma, iv, 9.92 mg/kg, 9.92 mg/kg i.v., individual animals M10-M12, read-out: C0): 4910 ng/mL | MRT inf ([2]; male, C57BL/6, mouse, plasma, iv, 9.92 mg/kg, 9.92 mg/kg i.v., individual animals M10-M12, read-out: MRT0-inf): 2.26 h | Vd ([2]; male, C57BL/6, mouse, plasma, iv, 9.92 mg/kg, 9.92 mg/kg i.v., individual animals M10-M12, read-out: Vss): 5.83 L/kg | AUC(0-t) ([2]; male, C57BL/6, mouse, plasma, po, 9.92 mg/kg, 9.92 mg/kg p.o., Mean ± SD, read-out: AUC0-tlast): 2170 ± 665 ng·h/mL | Cmax ([2]; male, C57BL/6, mouse, plasma, po, 9.92 mg/kg, 9.92 mg/kg p.o., Mean ± SD, read-out: Cmax): 389 ± 112 ng/mL | tmax ([2]; male, C57BL/6, mouse, plasma, po, 9.92 mg/kg, 9.92 mg/kg p.o., Mean ± SD, read-out: tmax): 0.25 h | AUC(0-inf) ([2]; male, C57BL/6, mouse, plasma, po, 9.92 mg/kg, 9.92 mg/kg p.o., individual animals M13-M15, read-out: AUC0-inf): 1630 ng·h/mL | AUC(0-t) ([2]; male, C57BL/6, mouse, plasma, po, 9.92 mg/kg, 9.92 mg/kg p.o., individual animals M13-M15, read-out: AUC0-tlast): 1460 ng·h/mL | Cmax ([2]; male, C57BL/6, mouse, plasma, po, 9.92 mg/kg, 9.92 mg/kg p.o., individual animals M13-M15, read-out: Cmax): 308 ng/mL | MRT inf ([2]; male, C57BL/6, mouse, plasma, po, 9.92 mg/kg, 9.92 mg/kg p.o., individual animals M13-M15, read-out: MRT0-inf): 8.91 h | half-life ([2]; male, C57BL/6, mouse, plasma, po, 9.92 mg/kg, 9.92 mg/kg p.o., individual animals, estimate may not be accurate, read-out: Apparent t1/2 (converted)): 9.66 h | AUC(0-inf) ([2]; male, C57BL/6, mouse, plasma, po, 9.92 mg/kg, 9.92 mg/kg p.o., mean (n = 2), read-out: AUC0-inf): 2360 ng·h/mL | half-life ([2]; male, C57BL/6, mouse, plasma, po, 9.92 mg/kg, 9.92 mg/kg p.o., mean (n = 2), read-out: Apparent t1/2 (converted)): 9.56 h | MRT inf ([2]; male, C57BL/6, mouse, plasma, po, 9.92 mg/kg, 9.92 mg/kg p.o., mean (n = 2), read-out: MRT0-inf): 8.72 h | AUC(0-inf) ([2]; male, C57BL/6, mouse, plasma, sc, 9.92 mg/kg, 9.92 mg/kg s.c., Mean ± SD, read-out: AUC0-inf): 2720 ± 249 ng·h/mL | AUC(0-t) ([2]; male, C57BL/6, mouse, plasma, sc, 9.92 mg/kg, 9.92 mg/kg s.c., Mean ± SD, read-out: AUC0-tlast): 2720 ± 250 ng·h/mL | half-life ([2]; male, C57BL/6, mouse, plasma, sc, 9.92 mg/kg, 9.92 mg/kg s.c., Mean ± SD, read-out: Apparent t1/2 (converted)): 2.3 ± 0.232 h | Cmax ([2]; male, C57BL/6, mouse, plasma, sc, 9.92 mg/kg, 9.92 mg/kg s.c., Mean ± SD, read-out: Cmax): 1240 ± 387 ng/mL | MRT inf ([2]; male, C57BL/6, mouse, plasma, sc, 9.92 mg/kg, 9.92 mg/kg s.c., Mean ± SD, read-out: MRT0-inf): 2.6 ± 0.186 h | tmax ([2]; male, C57BL/6, mouse, plasma, sc, 9.92 mg/kg, 9.92 mg/kg s.c., Mean ± SD, read-out: tmax): 0.25 h | AUC(0-inf) ([2]; male, C57BL/6, mouse, plasma, sc, 9.92 mg/kg, 9.92 mg/kg s.c., individual animals M16-M18, read-out: AUC0-inf): 2890 ng·h/mL | AUC(0-t) ([2]; male, C57BL/6, mouse, plasma, sc, 9.92 mg/kg, 9.92 mg/kg s.c., individual animals M16-M18, read-out: AUC0-tlast): 2880 ng·h/mL | half-life ([2]; male, C57BL/6, mouse, plasma, sc, 9.92 mg/kg, 9.92 mg/kg s.c., individual animals M16-M18, read-out: Apparent t1/2 (converted)): 2.1 h | Cmax ([2]; male, C57BL/6, mouse, plasma, sc, 9.92 mg/kg, 9.92 mg/kg s.c., individual animals M16-M18, read-out: Cmax): 1680 ng/mL | MRT inf ([2]; male, C57BL/6, mouse, plasma, sc, 9.92 mg/kg, 9.92 mg/kg s.c., individual animals M16-M18, read-out: MRT0-inf): 2.8 h | tmax ([2]; male, C57BL/6, mouse, plasma, sc, 9.92 mg/kg, 9.92 mg/kg s.c., individual animals M16-M18, read-out: tmax): 0.25 h
